Assay results from publication PMC12261228 (ACS Pharmacology & Translational Science, 2025).
Where two headings read alike, the source gives them in different places.

Assays:
[1] = tested on: CCRF-CEM; test: MTS cytotoxicity assay, 72 h; assay type: cell-based
[2] = tested on: CEM-DNR; test: MTS cytotoxicity assay, 72 h; assay type: cell-based; settings: Homo sapiens, read-out: IC50 CEM-DNR
[3] = tested on: K562; test: MTS cytotoxicity assay, 72 h; assay type: cell-based; settings: Homo sapiens, K562, 72 h, read-out: IC50 K562
[4] = tested on: K562-TAX; test: MTS cytotoxicity assay, 72 h; assay type: cell-based; settings: read-out: IC50 K562-TAX
[5] = tested on: HCT116; test: MTS cytotoxicity assay, 72 h; assay type: cell-based; settings: Homo sapiens, HCT-116, 72 h, read-out: IC50 HCT116
[6] = tested on: HCT116p53–/–; test: MTS cytotoxicity assay, 72 h; assay type: cell-based; settings: read-out: IC50 HCT116p53–/–
[7] = tested on: U2OS; test: MTS cytotoxicity assay, 72 h; assay type: cell-based, human; settings: Homo sapiens, U2OS, 72 h
[8] = tested on: MRC-5; test: MTS cytotoxicity assay, 72 h; assay type: cell-based; settings: Homo sapiens, MRC5, 72 h, read-out: IC50 MRC-5
[9] = tested on: BJ; test: MTS cytotoxicity assay, 72 h; assay type: cell-based; settings: Homo sapiens, read-out: IC50 BJ
[10] = tested on: A549; test: MTS cytotoxicity assay, 72 h; assay type: cell-based; settings: Homo sapiens, Fig. S22
Procedure: Cell suspensions were prepared and diluted according to the particular cell type and the expected target cell density (500 – 4,000 cells/well). The cells (30 μL/well) were seeded to 384-well clear Corning plates by MultiDrop Combi (Thermo Fisher Scientific, USA). After 24 h the cells were treated with tested compounds as well as with vehicle (DMSO) and high controls (2.67 μM of Actinomycin D and 100 μM Mitomycin C) using contact-free acoustic liquid handler ECHO 555 (Labcyte, USA). Compounds were analyzed at a concentration range from 0.012 μM to 50 μM. Treated cells were incubated at 37 °C in a 5% CO2 atmosphere of a humidified incubator for 72 h. At the end of the incubation period, aliquots of the MTS (Promega) solution prepared according to manufacturer's instructions were added to cells (https://worldwide.promega.com/resources/protocols/technical-bulletins/0/celltiter-96-aqueous-nonradioactive-cell-proliferation-assay-protocol/). After 1 – 4 h of the incubation period, the optical density (OD) at 490 nm was measured on a multimode plate reader EnVision (PerkinElmer, USA). The experiments were performed in technical duplicates and at least three biological replicates. […] The assay quality was monitored by determining the Z′-factor for each 384-well plate. The resistance index (RI), representing the reduction in compound activity on resistant cell lines, was calculated as RI = (IC50 of resistant cell lines, CEM-DNR, K562-TAX)/(IC50 of nonresistant counterparts, CCRF-CEM, K562). Similarly, the selectivity index (SI), indicating preferential cytotoxicity toward tumor cell lines, was calculated as SI = (mean IC50 of nontumor cell lines, BJ and MRC5)/(mean IC50 of cancer cell lines without resistant variants, CCRF-CEM, K562, HCT116, HCT116p53–/–, U2OS).

[11] = tested on: HUVEC; test: MTS cytotoxicity assay, 72 h; assay type: cell-based; settings: Homo sapiens, 3-day incubation, mean ± SD
[12] = tested on: panel of cell lines
[13] = tested on: CCRF-CEM lymphoblasts; test: FACS analysis of cell cycle, apoptosis, mitosis and polyploidy; settings: for Mitosis: phospho-Histone (Ser10); for Apoptosis: sub-G0/G1 DNA content, % of positive cells
[14] = MTS assay, 3-day incubation, mean ± SD
[15] = normal fibroblasts, MTS assay, 3-day incubation, mean ± SD
[16] = Homo sapiens, CCRF-CEM, 72 h, read-out: IC50 CCRF-CEM, MTS assay, 3-day incubation, mean ± SD of 3 experiments
[17] = read-out: IC50 U2OS, MTS assay, 3-day incubation, mean ± SD

Row | SMILES | IC50 [1, 16] [µM] | IC50 [2] [µM] | IC50 [3] [µM] | IC50 [4] [µM] | IC50 [5] [µM] | IC50 [6] [µM] | IC50 [7, 17] [µM] | IC50 [8] [µM] | IC50 [9] [µM] | IC50 [11] [µM] | RI (resistance index) [12] | SI (selectivity index) [12] | G0/G1 ([13]; 1×IC50, 24 h) [%] | G2/M ([13]; 1×IC50, 24 h) [%] | Polyploid cells ([13]; 1×IC50, 24 h) [%] | S ([13]; 1×IC50, 24 h) [%] | Mitosis ([13]; 1×IC50, 24 h) [%] | Apoptosis ([13]; 1×IC50, 24 h) [%] | G0/G1 ([13]; 5×IC50, 24 h) [%] | Polyploid cells ([13]; 5×IC50, 24 h) [%] | other results
1 | CC1=CC(C)=[N+]2C1=C(CCCCN(C)C)c1c(C)cc(C)n1[B-]2(F)F [B6] |  |  |  |  |  |  |  |  |  |  |  |  |  |  |  |  |  |  |  |  | IC50 ([1]; Homo sapiens, CCRF-CEM, 72 h, MTS assay, 3-day incubation, mean ± SD of 3 experiments, read-out: IC50 CCRF-CEM): > 50 µM; IC50 ([2]; daunorubicin-resistant, MTS assay, 3-day incubation, mean ± SD): > 50 µM; IC50 [3, 14]: > 50 µM; IC50 ([4]; paclitaxel-resistant, MTS assay, 3-day incubation, mean ± SD): > 50 µM; IC50 [5, 14]: > 50 µM; IC50 [6, 14]: > 50 µM; IC50 ([7]; MTS assay, 3-day incubation, mean ± SD, read-out: IC50 U2OS): > 50 µM; IC50 [8, 15]: > 50 µM; IC50 [9, 15]: > 50 µM; IC50 [10]: > 50 µM
2 | COc1cc2c(c(OC)c1OC)-c1ccc(OC)c(=O)cc1[C@@H](NC(=O)CCCCCCCCCCC1=C3C(C)=CC(C)=[N+]3[B-](F)(F)n3c(C)cc(C)c31)CC2 [CB2] | 0.33 ± 0.005 | 1.45 ± 0.06 | 0.19 ± 0.04 | 0.58 ± 0.035 | > 50 | > 50 | > 50 | > 50 | > 50 | 0.36 ± 0.035 | 3.90 | >1.66 | 6.59 | 89.19 | 23.67 | 4.22 | 45.60 | 8.51 | 5.2 | 26.18 | cytotoxic activity across the cell line panel (in words) [12]: selectively killed/affected suspension cell lines; S ([13]; 5×IC50, 24 h): 1.29%; Mitosis ([13]; 5×IC50, 24 h): 79.51%; Apoptosis ([13]; 5×IC50, 24 h): 13.84%
3 | COc1cc2c(c(OC)c1OC)-c1ccc(OC)c(=O)cc1[C@@H](NC(=O)CCCC[N+](C)(C)CCCCC1=C3C(C)=CC(C)=[N+]3[B-](F)(F)n3c(C)cc(C)c31)CC2 [CB3] | 9.33 ± 0.952 | > 50 | 9.5 ± 2.37 | 40.1 ± 1.07 | 31.6 ± 4.54 | 36.4 ± 5.03 | > 50 | > 50 | > 50 | > 50 | >4.79 | >1.83 | 2.89 | 79.08 | 26.03 | 18.03 | 58.58 | 16.41 | 7.84 | 26.25 | cytotoxic activity across the cell line panel (in words) [12]: significantly lower; apoptosis in CCRF-CEM cells ([13]; 1× and 5 × IC50, compared with DMSO): 20%; G2/M ([13]; 5×IC50, 24 h): 84.01%; S ([13]; 5×IC50, 24 h): 8.15%; Mitosis ([13]; 5×IC50, 24 h): 57.12%; Apoptosis ([13]; 5×IC50, 24 h): 20.64%
4 | COc1cc2c(c(OC)c1OC)-c1ccc(OC)c(=O)cc1[C@@H](n1cc(CCCCCCCCC3=C4C(C)=CC(C)=[N+]4[B-](F)(F)n4c(C)cc(C)c43)[n+](C)n1)CC2 [CB8] | 7.11 ± 1.14 | 6.53 ± 0.458 | 7.83 ± 0.892 | 6.35 ± 0.335 | 8.81 ± 1.94 | 9.36 ± 0.87 | 11.9 ± 1.11 | 22.1 ± 1.22 | 36.9 ± 5.68 | 23.5 ± 1.29 | 0.86 | 3.28 | 8.68 | 80.01 | 23.43 | 11.31 | 5.79 | 11.09 | 9.49 | 20.18 | G2/M ([13]; 5×IC50, 24 h): 87.34%; S ([13]; 5×IC50, 24 h): 3.17%; Mitosis ([13]; 5×IC50, 24 h): 13.33%; Apoptosis ([13]; 5×IC50, 24 h): 3.98%
5 | COc1cc(C2=C3C(C)=CC(C)=[N+]3[B-](F)(F)n3c(C)cc(C)c32)ccc1OCc1cn([C@H]2CCc3cc(OC)c(OC)c(OC)c3-c3ccc(OC)c(=O)cc32)n[n+]1C [CB9] | 4.81 ± 0.641 | 6.49 ± 0.639 | 7.69 ± 0.45 | 5.78 ± 0.561 | 8.27 ± 1.43 | 8.56 ± 0.365 | > 50 | > 50 | > 50 | 40.1 ± 2.93 | 0.98 | >3.15 | 12.83 | 60.07 | 29.32 | 27.11 | 32.84 | 8.93 | 19.56 | 26.30 | G2/M ([13]; 5×IC50, 24 h): 48.91%; S ([13]; 5×IC50, 24 h): 31.53%; Mitosis ([13]; 5×IC50, 24 h): 31.00%; Apoptosis ([13]; 5×IC50, 24 h): 14.27%
6 | COc1cc2c(c(OC)c1OC)-c1ccc(NCCCCC3=C4C(C)=CC(C)=[N+]4[B-](F)(F)n4c(C)cc(C)c43)c(=O)cc1[C@@H](NC(C)=O)CC2 [CB10] | 7.13 | 11.1 ± 0.959 | 10.8 ± 0.431 | 14.8 ± 2.94 | 35.8 ± 5.91 | > 50 | > 50 | > 50 | > 50 | 32.3 ± 0.42 | 1.45 | >1.63 | 34.04 | 26.65 | 12.43 | 39.32 | 2.86 | 3.87 | 8.21 | 25.51 | IC50 ([1]; read-out: IC50 CCRF-CEM, MTS assay, 3-day incubation, mean ± SD of 3 experiments): 7.11 ± 0.651 µM; cytotoxic activity across the cell line panel (in words) [12]: significantly lower; G2/M ([13]; 5×IC50, 24 h): 62.62%; S ([13]; 5×IC50, 24 h): 29.17%; Mitosis ([13]; 5×IC50, 24 h): 36.02%; Apoptosis ([13]; 5×IC50, 24 h): 11.26%
